Measured values: patent US11555012B2 (Nimbus Artemis, Inc., priority 2018, dated 2023)

molecular target: T1, ACL (Homo sapiens (Human), UniProt P53396); experiment: ADP-Glo Assay; conditions: not given
Target sequence in this assay (P53396 other isoform, or with tags, fused parts or gaps isoform P53396-2): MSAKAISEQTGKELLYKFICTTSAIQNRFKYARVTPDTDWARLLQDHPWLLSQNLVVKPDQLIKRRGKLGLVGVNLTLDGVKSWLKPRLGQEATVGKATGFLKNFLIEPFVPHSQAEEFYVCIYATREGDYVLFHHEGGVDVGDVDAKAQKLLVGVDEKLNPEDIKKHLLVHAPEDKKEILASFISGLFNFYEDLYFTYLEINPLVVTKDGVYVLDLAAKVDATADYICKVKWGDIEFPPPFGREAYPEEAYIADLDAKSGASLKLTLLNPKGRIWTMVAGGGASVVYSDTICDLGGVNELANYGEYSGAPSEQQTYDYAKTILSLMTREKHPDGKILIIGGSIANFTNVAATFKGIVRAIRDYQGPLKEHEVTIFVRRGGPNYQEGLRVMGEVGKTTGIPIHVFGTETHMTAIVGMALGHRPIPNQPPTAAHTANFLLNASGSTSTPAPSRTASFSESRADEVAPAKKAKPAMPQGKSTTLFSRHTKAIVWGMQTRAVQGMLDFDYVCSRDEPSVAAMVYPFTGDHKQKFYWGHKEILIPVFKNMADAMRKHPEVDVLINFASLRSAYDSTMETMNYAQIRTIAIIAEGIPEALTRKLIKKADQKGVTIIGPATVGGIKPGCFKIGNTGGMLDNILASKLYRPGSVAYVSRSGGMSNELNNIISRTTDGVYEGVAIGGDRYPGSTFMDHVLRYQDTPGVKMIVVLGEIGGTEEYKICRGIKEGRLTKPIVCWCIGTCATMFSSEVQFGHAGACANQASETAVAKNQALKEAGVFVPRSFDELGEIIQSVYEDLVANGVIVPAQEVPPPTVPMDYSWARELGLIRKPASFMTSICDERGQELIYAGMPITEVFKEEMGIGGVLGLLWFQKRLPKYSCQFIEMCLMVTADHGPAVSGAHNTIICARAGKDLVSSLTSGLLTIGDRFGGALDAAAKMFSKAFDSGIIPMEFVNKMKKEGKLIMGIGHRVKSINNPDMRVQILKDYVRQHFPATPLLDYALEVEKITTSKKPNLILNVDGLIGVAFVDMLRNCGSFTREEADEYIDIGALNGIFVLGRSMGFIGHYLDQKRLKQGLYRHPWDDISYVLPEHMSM

Compound	IC50 [µM]
COc1ccc(-c2ccccc2)cc1NS(=O)(=O)c1cc(C(=O)O)cc(Cl)c1O [I-2, 3-chloro-4-hydroxy-5-(N-(4-methoxy-[1,1′-biphenyl]-3-yl)sulfamoyl)benzoic Acid]	0.5 to 20
COc1ccc(-c2cccnc2)cc1NS(=O)(=O)c1cc(Cl)cc(Cl)c1O [I-7, 3,5-dichloro-2-hydroxy-N-(2-methoxy-5-(pyridin-3-yl)phenyl)benzenesulfonamide]	0.5 to 20
CS(=O)(=O)NC(=O)c1ccc(F)c(NS(=O)(=O)c2cc(Cl)cc(Cl)c2O)c1 [I-423, 3-[(3,5-dichloro-2-hydroxybenzene)sulfonamido]-4-fluoro-N-methanesulfonylbenzamide]	> 20
O=S(=O)(Nc1cc(-c2ccccc2)ccc1F)c1cc(-c2nn[nH]n2)ccc1F [I-424, 2-fluoro-N-(2-fluoro-5-phenylphenyl)-5-(2H-1,2,3,4-tetrazol-5-yl)benzene-1-sulfonamide]	> 20
COc1ccc(-c2cccnc2)cc1NS(=O)(=O)c1cc(C(=O)O)cc(Cl)c1OC [I-425, 3-chloro-4-methoxy-5-(N-(2-methoxy-5-(pyridin-3-yl)phenyl)sulfamoyl)benzoic Acid]	> 20
COc1ccc(-c2ccccc2)cc1N(C)S(=O)(=O)c1cc(C(=O)O)cc(Cl)c1O [I-426, 3-chloro-4-hydroxy-5-[(2-methoxy-5-phenylphenyl)(methyl)sulfamoyl]benzoic acid]	> 20
COc1ccc(-c2cccnc2)cc1NS(=O)(=O)c1cc(C(=O)O)cc(Cl)c1O [I-427, 3-chloro-4-hydroxy-5-(N-(2-methoxy-5-(pyridin-3-yl)phenyl)sulfamoyl)benzoic Acid]	> 20
COC(=O)c1cc(Cl)c(OC)c(S(=O)(=O)Nc2cc(-c3ccccc3)ccc2OC)c1 [I-428, Methyl 3-chloro-4-methoxy-5-(N-(4-methoxy-[1,1′-biphenyl]-3-yl)sulfamoyl)benzoate]	> 20
NC(=O)c1ccc(F)c(S(=O)(=O)Nc2cc(-c3ccccc3)ccc2F)c1 [I-429, 4-fluoro-3-(N-(4-fluoro-[1,1′-biphenyl]-3-yl)sulfamoyl)benzamide]	> 20
COc1ccc(-c2ccccc2)cc1NS(=O)(=O)c1cc(Cl)cc(C(=O)O)c1OC [I-430, 5-chloro-2-methoxy-3-(N-(4-methoxy-[1,1′-biphenyl]-3-yl)sulfamoyl)benzoic Acid]	> 20
COC(=O)c1cc(Cl)cc(S(=O)(=O)Nc2cc(-c3ccccc3)ccc2OC)c1O [I-431, Methyl 5-chloro-2-hydroxy-3-(N-(4-methoxy-[1,1′-biphenyl]-3-yl)sulfamoyl)benzoate]	> 20
COc1ccc(-c2ccccc2)cc1NS(=O)(=O)c1cc(C(N)=O)cc(Cl)c1OC [I-432, 3-chloro-4-methoxy-5-(N-(4-methoxy-[1,1′-biphenyl]-3-yl)sulfamoyl)benzamide]	> 20
CNC(=O)c1cc(Cl)c(OC)c(S(=O)(=O)Nc2cc(-c3ccccc3)ccc2OC)c1 [I-433, 3-chloro-4-methoxy-5-(N-(4-methoxy-[1,1′-biphenyl]-3-yl)sulfamoyl)-N-methylbenzamide]	> 20
COc1ccc(-c2ccccc2)cc1NS(=O)(=O)c1cc(C(=O)N(C)C)cc(Cl)c1OC [I-434, 3-chloro-4-methoxy-5-(N-(4-methoxy-[1,1′-biphenyl]-3-yl)sulfamoyl)-N,N-dimethylbenzamide]	> 20
COC(=O)c1cc(Cl)cc(S(=O)(=O)Nc2cc(-c3ccccc3)ccc2OC)c1OC [I-435, Methyl 5-chloro-2-methoxy-3-(N-(4-methoxy-[1,1′-biphenyl]-3-yl)sulfamoyl)benzoate]	> 20
COc1ccc(-c2ccccc2)cc1NS(=O)(=O)c1cccc(-c2nnn(C)n2)c1 [I-436, N-(2-methoxy-5-phenylphenyl)-3-(2-methyl-2H-1,2,3,4-tetrazol-5-yl)benzene-1-sulfonamide]	> 20
COc1ccc(-c2ccccc2)cc1NS(=O)(=O)c1cccc(-c2nnnn2C)c1 [I-437, N-(2-methoxy-5-phenylphenyl)-3-(1-methyl-1H-1,2,3,4-tetrazol-5-yl)benzene-1-sulfonamide]	> 20
COc1ccc(-c2ccccc2)cc1NS(=O)(=O)c1cc(C(=O)O)ccc1Cl [I-438, 4-chloro-3-[(2-methoxy-5-phenylphenyl)sulfamoyl]benzoic acid]	> 20
COc1ccc(-c2ccccc2)cc1NS(=O)(=O)c1cc(CC(=O)O)cc(Cl)c1OC [I-439, 2-[3-chloro-4-methoxy-5-[(2-methoxy-5-phenylphenyl)sulfamoyl]phenyl]acetic Acid]	> 20
CCC(=O)Nc1c(Cl)cc(Cl)cc1S(=O)(=O)Nc1cc(-c2ccccc2)ccc1OC [I-440, N-[2,4-dichloro-6-[(2-methoxy-5-phenylphenyl)sulfamoyl]phenyl]propanamide]	> 20
COc1ccccc1S(=O)(=O)Nc1cc(-c2ccccc2)ccc1F [I-441, N-[4-fluoro-[1,1-biphenyl]-3-yl]-2-methoxybenzene-1-sulfonamide]	> 20

Compound	IC50 [µM]
COc1ccc(-c2ccccc2)cc1NS(=O)(=O)c1cc(-c2nn[nH]n2)ccc1OC [I-442, 2-methoxy-N-(2-methoxy-5-phenylphenyl)-5-(2H-1,2,3,4-tetrazol-5-yl)benzene-1-sulfonamide]	> 20
Cn1ccc(Oc2c(Cl)cc(Cl)cc2S(=O)(=O)Nc2cc(-c3ccccc3)ccc2F)n1 [I-443, 3,5-dichloro-N-(4-fluoro-[1,1′-biphenyl]-3-yl)-2-((1-methyl-1H-pyrazol-3-yl)oxy)benzenesulfonamide]	> 20
O=C(O)c1cc(Cl)c(O)c(S(=O)(=O)Nc2ccc(F)c(-c3ccccc3)c2F)c1 [I-444, 3-chloro-5-[(2,4-difluoro-3-phenylphenyl)sulfamoyl]-4-hydroxybenzoic acid]	> 20
O=C(O)c1ccc(-c2ccccc2)cc1NS(=O)(=O)c1cn[nH]c1 [I-445]	> 20
O=C(O)c1cc(Cl)c(O)c(S(=O)(=O)Nc2cc(-c3cc4ccccc4s3)c(F)cc2F)c1 [I-507, 3-(N-(5-(benzo[b]thiophen-2-yl)-2,4-difluorophenyl)sulfamoyl)-5-chloro-4-hydroxybenzoic Acid]	0.05 to 0.5
CC#Cc1cc(Cl)ccc1N(C)S(=O)(=O)c1cc(Br)cc(Cl)c1O [I-516, 5-bromo-3-chloro-N-(4-chloro-2-(prop-1-yn-1-yl)phenyl)-2-hydroxy-N-methylbenzenesulfonamide]	0.5 to 20
COc1cc(F)c(-c2cc3ccccc3s2)cc1NS(=O)(=O)c1cc(C(=O)O)cc(F)c1O [I-517, 3-(N-(5-(benzo[b]thiophen-2-yl)-4-fluoro-2-methoxyphenyl)sulfamoyl)-5-fluoro-4-hydroxybenzoic Acid]	0.5 to 20
O=C(Nc1cc(Br)ccc1C(=O)O)c1cc(Cl)cc(Cl)c1 [I-519, 4-bromo-2-(3,5-dichlorobenzamido)benzoic Acid]	0.5 to 20
O=C(O)c1ccccc1NS(=O)(=O)c1cc(Cl)cc(Cl)c1 [I-522, 2-((3,5-dichlorophenyl)sulfonamido)benzoic acid]	> 20
CCS(=O)(=O)Nc1ccc(S(=O)(=O)Nc2cc(-c3ccccc3)ccc2F)c(OC)c1 [I-523, 4-(ethylsulfonamido)-N-(4-fluoro-[1,1′-biphenyl]-3-yl)-2-methoxybenzenesulfonamide]	> 20
CC(C)S(=O)(=O)Nc1ccc(S(=O)(=O)Nc2cc(-c3ccccc3)ccc2F)cc1F [I-524, 3-fluoro-N-(4-fluoro-[1,1′-biphenyl]-3-yl)-4-((1-methylethyl)sulfonamido)benzenesulfonamide]	> 20
COC(=O)c1ccnc(NS(=O)(=O)c2cc(Cl)cc(Cl)c2O)c1 [I-525, methyl 2-((3,5-dichloro-2-hydroxyphenyl)sulfonamido)isonicotinate]	> 20
Cc1ccc(S(=O)(=O)Nc2cc(-c3ccccc3)ccc2F)c(C)c1OCC(=O)O [I-526, 2-(3-(N-(4-fluoro-[1,1′-biphenyl]-3-yl)sulfamoyl)-2,6-dimethylphenoxy)acetic acid]	> 20
Cc1ccc(C(=O)O)c(NS(=O)(=O)c2cc(Cl)cc(Cl)c2)n1 [I-527, 2-((3,5-dichlorophenyl)sulfonamido)-6-methylnicotinic acid]	> 20
COc1ccc(-c2ccccc2)cc1NS(=O)(=O)c1ccccc1O [I-528, 2-hydroxy-N-(4-methoxy-[1,1′-biphenyl]-3-yl)benzenesulfonamide]	> 20
COc1ccc(C(=O)O)cc1S(=O)(=O)Nc1cc(-c2ccccc2)c(F)cc1F [I-529, 3-(N-(4,6-difluoro-[1,1′-biphenyl]-3-yl)sulfamoyl)-4-methoxybenzoic acid]	> 20
COC(=O)Cc1ccc(-c2ccccc2)cc1NS(=O)(=O)c1cc(Cl)cc(Cl)c1 [I-530, methyl 2-(3-((3,5-dichlorophenyl)sulfonamido)-[1,1′-biphenyl]-4-yl)acetate]	> 20
O=C(O)c1cc(NC(=O)c2cccc3ncccc23)ccc1Cl [I-531, 2-chloro-5-(quinoline-5-carboxamido)benzoic acid]	> 20
Cc1cccc(C(=O)O)c1NS(=O)(=O)c1cc(Cl)cc(Cl)c1 [I-533, 2-((3,5-dichlorophenyl)sulfonamido)-3-methylbenzoic acid]	> 20
O=C(O)c1cc(NC(=O)c2cc(F)cc3nc[nH]c23)ccc1Cl [I-535, 2-chloro-5-(5-fluoro-1H-benzo[d]imidazole-7-carboxamido)benzoic acid]	> 20
O=C(O)c1cc(Cl)c(O)c(S(=O)(=O)Nc2cc(-c3ccccc3)ccn2)c1 [I-536]	> 20

same assay, conditions: read-out: ACL-ADP-Glo (IC50); 3 nM ACL, 15 μM ATP, 3 μM CoA, 300 μM Citrate

Compound	IC50 [µM]
CCOC(=O)c1cc(Cl)c(O)c(S(=O)(=O)Nc2cc(-c3cc4ccccc4s3)c(F)cc2OC)c1 [I-506, ethyl 3-(N-(5-(benzo[b]thiophen-2-yl)-4-fluoro-2-methoxyphenyl)sulfamoyl)-5-chloro-4-hydroxybenzoate]	< 0.05
CN(C)C(=O)c1cc(Cl)c(O)c(S(=O)(=O)Nc2cc(-c3ccccc3)ccc2C(=O)O)c1 [I-518, 3-((3-chloro-5-(dimethylcarbamoyl)-2-hydroxyphenyl)sulfonamido)-[1,1′-biphenyl]-4-carboxylic Acid]	0.5 to 20

molecular target: T1, ACL; experiment: ACLY-MDH Coupled Assay; conditions: not given
Target sequence in this assay (P53396 whole entry, species assumed): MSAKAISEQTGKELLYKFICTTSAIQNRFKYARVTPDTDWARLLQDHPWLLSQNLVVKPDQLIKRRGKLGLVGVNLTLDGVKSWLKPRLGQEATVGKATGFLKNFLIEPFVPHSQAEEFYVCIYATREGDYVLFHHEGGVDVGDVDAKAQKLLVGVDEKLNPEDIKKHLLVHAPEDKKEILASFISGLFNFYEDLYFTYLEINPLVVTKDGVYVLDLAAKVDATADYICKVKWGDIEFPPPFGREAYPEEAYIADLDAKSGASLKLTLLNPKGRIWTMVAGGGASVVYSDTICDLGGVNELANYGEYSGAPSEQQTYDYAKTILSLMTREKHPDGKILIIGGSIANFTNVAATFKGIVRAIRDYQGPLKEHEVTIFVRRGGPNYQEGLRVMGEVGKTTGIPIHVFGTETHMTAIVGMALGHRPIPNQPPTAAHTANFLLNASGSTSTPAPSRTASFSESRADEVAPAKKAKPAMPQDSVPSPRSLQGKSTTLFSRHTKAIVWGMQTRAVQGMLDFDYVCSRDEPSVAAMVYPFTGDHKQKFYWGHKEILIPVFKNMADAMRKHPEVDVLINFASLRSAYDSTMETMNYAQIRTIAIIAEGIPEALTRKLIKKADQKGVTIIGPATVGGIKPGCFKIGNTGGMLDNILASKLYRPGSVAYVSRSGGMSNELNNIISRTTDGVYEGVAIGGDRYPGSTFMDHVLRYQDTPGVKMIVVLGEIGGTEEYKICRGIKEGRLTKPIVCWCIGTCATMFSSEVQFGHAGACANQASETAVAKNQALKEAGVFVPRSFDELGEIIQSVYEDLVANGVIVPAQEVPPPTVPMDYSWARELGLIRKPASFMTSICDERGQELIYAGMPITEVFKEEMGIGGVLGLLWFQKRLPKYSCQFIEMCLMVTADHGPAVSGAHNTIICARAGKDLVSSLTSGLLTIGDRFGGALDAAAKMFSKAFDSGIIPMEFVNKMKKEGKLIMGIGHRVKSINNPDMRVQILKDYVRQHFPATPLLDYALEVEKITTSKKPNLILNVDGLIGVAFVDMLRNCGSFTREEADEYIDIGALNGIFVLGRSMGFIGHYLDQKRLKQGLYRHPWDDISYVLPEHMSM

Compound	IC50 [µM]
COc1ccc(-c2ccccc2)cc1NS(=O)(=O)c1cc(C(=O)O)cc(Cl)c1O [I-2, 3-chloro-4-hydroxy-5-(N-(4-methoxy-[1,1′-biphenyl]-3-yl)sulfamoyl)benzoic Acid]	0.5 to 30
COc1ccc(-c2cccnc2)cc1NS(=O)(=O)c1cc(Cl)cc(Cl)c1O [I-7, 3,5-dichloro-2-hydroxy-N-(2-methoxy-5-(pyridin-3-yl)phenyl)benzenesulfonamide]	0.5 to 30
